Test [1] concerns the target T1, 26S proteasome non-ATPase regulatory subunit 10 (Homo sapiens) (UniProt O75832).
T1 sequence (whole entry): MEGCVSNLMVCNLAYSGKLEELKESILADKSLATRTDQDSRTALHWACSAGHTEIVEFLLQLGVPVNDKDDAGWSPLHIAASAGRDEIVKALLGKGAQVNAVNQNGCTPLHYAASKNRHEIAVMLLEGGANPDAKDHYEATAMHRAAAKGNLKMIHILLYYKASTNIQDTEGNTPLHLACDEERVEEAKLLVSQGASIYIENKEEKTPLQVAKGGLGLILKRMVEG
Briefly: Binding affinity to gankyrin (unknown origin) assessed as fold increase in change in melting temperature at 300 uM by thermal shift assay relative to control.

Test [2] deals with Hep 3B2. Briefly: Antiproliferative activity against human Hep3B cells assessed as reduction in cell viability incubated for 72 hrs by MTT assay. In kind it is functional, cell-based.
The subject of test [3] is HepG2. Description: Antiproliferative activity against human HepG2 cells assessed as reduction in cell viability incubated for 72 hrs by MTT assay. To be noted: HepG2, 72 h. In kind it is functional, cell-based.
The test system of test [4] is Hep 3B2. Description: Antiproliferative activity against human Hep3B cells assessed as reduction in cell viability at 50 uM incubated for 72 hrs by MTT assay relative to control. In kind it is functional.
Test [5] deals with HepG2. Briefly: Antiproliferative activity against human HepG2 cells assessed as reduction in cell viability at 50 uM incubated for 72 hrs by MTT assay relative to control. To be noted: HepG2, 72 h. The class given is functional.

Experimental findings from ChEMBL document CHEMBL4610049, “Structural modification of the aryl sulfonate ester of cjoc42 for enhanced gankyrin binding and anti-cancer activity” (Bioorg Med Chem Lett, 2020) are described below.

The source made the active and inactive calls. The rule behind the calls is not given here.

For the compound `CCc1cccc(S(=O)(=O)OCCCc2cn(-c3ccc(C(=O)OC)cc3)nn2)c1`, the result in test [1] was inactive.

For `COC(=O)c1ccc(-n2cc(CCCOS(=O)(=O)c3ccc(-c4ccccc4)cc3)nn2)cc1`, the fold change (FC) in test [1] stood at 2.3. Further, the half-maximal inhibitory concentration (IC50) came out at 26 µM in the test with Hep 3B2 [2] and 46.2 µM in the test with HepG2 [3].

Turning to `COC(=O)c1ccc(-n2cc(CCCOS(=O)(=O)c3cccc(Cl)c3)nn2)cc1`, in test [1], the result was inactive.

`COC(=O)c1ccc(-n2cc(CCCOS(=O)(=O)c3cccc(F)c3)nn2)cc1`: the inhibition at 50 µM in the test with Hep 3B2 [4] and in the test with HepG2 [5] was 0% throughout. Also, in test [1], the fold change (FC) came out at 1.4. Moreover, the IC50 in the test on Hep 3B2 [2] and in the test with HepG2 [3] was more than 50 µM throughout.

Regarding `COC(=O)c1ccc(-n2cc(CCCOS(=O)(=O)c3cccc(OC)c3)nn2)cc1`, the fold change (FC) in test [1] is 1.9. Also, the IC50 amounted to 20.9 µM with Hep 3B2 [2] and 36.9 µM in the test on HepG2 [3].

Turning to `COC(=O)c1ccc(-n2cc(CCCOS(=O)(=O)c3cccc(C#N)c3)nn2)cc1`, the result in test [1] was Active.

Regarding `COC(=O)c1ccc(-n2cc(CCCOS(=O)(=O)c3ccc(C)cc3)nn2)cc1`, the inhibition at 50 µM in the test with Hep 3B2 [4] and in the test with HepG2 [5] was 0% throughout. Besides, the result in test [1] was Active. For the same compound, the half-maximal inhibitory concentration (IC50) in the test with Hep 3B2 [2] and with HepG2 [3] was more than 50 µM each time.

Take `COC(=O)c1ccc(-n2cc(CCCOS(=O)(=O)c3ccc(OC)cc3)nn2)cc1`: in test [1], the outcome was Active.

As for `COC(=O)c1ccc(-n2cc(CCCOS(=O)(=O)c3cccc(C(=O)OC)c3)nn2)cc1`, the result in test [1] was inactive.

Regarding `COC(=O)c1ccc(-n2cc(CCCOS(=O)(=O)c3ccc(C#N)cc3)nn2)cc1`, the result in test [1] was Active.

For the compound `COC(=O)c1ccc(-n2cc(CCCOS(=O)(=O)c3ccc(I)cc3)nn2)cc1`, the fold change (FC) in test [1] came to 1.7. The figures for the IC50 in the test with Hep 3B2 [2] and in the test with HepG2 [3] were 25.3 µM and 17.5 µM, respectively.

`COC(=O)c1ccc(-n2cc(CCCOS(=O)(=O)c3ccccc3C)nn2)cc1`: the inhibition at 50 µM in the test with Hep 3B2 [4] and with HepG2 [5] was 0% in each case. In test [1], the fold change (FC) was 2. Besides, the IC50 in the test with Hep 3B2 [2] and in the test on HepG2 [3] was more than 50 µM throughout.

With `COC(=O)c1ccc(-n2cc(CCCOS(=O)(=O)c3cccc(C)c3)nn2)cc1`, in test [1], the outcome was inactive.

Take `CCc1ccc(S(=O)(=O)OCCCc2cn(-c3ccc(C(=O)OC)cc3)nn2)cc1`: the outcome in test [1] was Active.

With `COC(=O)c1ccc(-n2cc(CCCOS(=O)(=O)c3ccccc3)nn2)cc1`, in test [1], the result was inactive.

As to `COC(=O)c1ccc(-n2cc(CCCOS(=O)(=O)c3ccc(C(C)C)cc3)nn2)cc1`, in test [1], the result was inactive.

As to `COC(=O)c1ccc(-n2cc(CCCOS(=O)(=O)c3ccc(C(=O)OC)cc3)nn2)cc1`, in test [1], the outcome was Active.

Consider `CNC(=O)c1ccc(S(=O)(=O)OCCCc2cn(-c3ccc(C(=O)OC)cc3)nn2)cc1`, for which the result in test [1] was inactive.
